The subject of series [1] is carrageenan-induced rat paw edema. Description: Inhibition of rat paw edema induced by carrageenan. Type of series: in vivo, Fischer 344 rats. To be noted: intraperitoneally, 3.5 h; for inhibition in vivo at 10 µmol/kg: Rattus norvegicus, ip, 0.01 mmol/kg body weight, read-out: CPE % inhibition of rat paw edema induced by carrageenan. Here is the method: The pyrrolyl derivatives, as well as their precursor chalcones were tested in vivo for the inhibition of rat paw edema induced by carrageenan. […] […]. For Compounds 2i, 2iii, 2iv and 2v, we determined their ED50 values. […]. The finding supports the primary idea of this design.
Edema was induced in the right hind paw of Fischer 344 rats (150–200 g). In the study, both males and females were included, with the exemption of pregnant females. The animals, which have been bred in our laboratory, were housed under standard conditions and received a diet of commercial food pellets and water ad libitum during maintenance. One hour before the onset of the experiment, food and water were removed. The tested compounds (dose 0.01 mmol/kg body weight) were diluted in water with a few drops of Tween 80, and they were administered intraperitoneally simultaneously with the intradermal injection of 0.1 mL 2% of carrageenan in water. The animals were euthanatized 3.5 h after the carrageenan administration. The difference between the weight of injected and uninjected paws was calculated for each animal and was compared to control animals, which were treated with water. Indomethacin was used as a reference compound in 0.01 mmol/kg. The results were expressed as the percent inhibition of the edema (CPE %).

The next series deals with T1, trypsin (Bos taurus, UniProt P00760).
T1 construct: purchased Sigma Chemical, Co. (St. Louis, MO, USA); host or cells: bovine pancreas
T1 sequence (P00760 24-246): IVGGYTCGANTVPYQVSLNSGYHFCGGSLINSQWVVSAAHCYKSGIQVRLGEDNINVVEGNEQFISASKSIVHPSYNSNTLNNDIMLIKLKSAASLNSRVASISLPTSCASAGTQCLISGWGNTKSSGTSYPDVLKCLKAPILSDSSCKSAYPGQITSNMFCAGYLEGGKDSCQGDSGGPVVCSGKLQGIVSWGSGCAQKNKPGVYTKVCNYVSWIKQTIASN
Kind of series: Inhibition of the proteolytic activity of trypsin. Type of series: biochemical. The note with it: bovine albumin substrate, pH 7.6; read-out: TP IC50 (inhibition of trypsin). An excerpt: Trypsin is an enzyme with an active role in inflammation. Thus, we studied the anti-proteolytic ability of the pyrrole derivatives, using salicylic acid as a reference compound. […] Comparing Compounds 2iv and 2v, the insertion of an electron-acceptor substituent (Cl) on the phenyl ring (substituent Ar^2) and the simultaneous increase of the volume of substituent Ar^2 (expressed as molar refractivity) led to an enhancement of the anti-proteolytic activity.
Carrageenan, type K, was commercially available. Cycloxygenase-2 (COX-2) and interleukin-6 (IL-6) EIA Kit, Item No. 583371 were purchased from Cayman. Trolox was obtained from Aldrich Chemical Co. (Milwaukee, WI, USA). All starting materials were obtained from commercial sources, and they were used without further purification.
The tested compounds (concentrations varying from 10 μΜ–100 μΜ in DMSO) were dissolved in a phosphate buffer (0.1 M K2HPO4–NaH2PO4·2H2O, pH = 7.6), and 0.2 mL of trypsin 0.075 mg/mL were added. The mixture was incubated at room temperature for 20 min, and then, 1 mL of bovine albumin (6 g/100 mL) was added. The mixture was incubated at 37 °C for 30 min. The reaction was stopped with the addition of 1 mL of trichloroacetic acid (5% w/w) Separation of the phases followed, with measurement of the supernatants at 280 nm at room temperature. IC50 values were determined.

For a further series, the target named is T2, soybean lipoxygenase (Glycine max, UniProt P08170).
T2 construct: purchased Sigma Chemical, Co. (St. Louis, MO, USA)
T2 sequence (P08170 1-839): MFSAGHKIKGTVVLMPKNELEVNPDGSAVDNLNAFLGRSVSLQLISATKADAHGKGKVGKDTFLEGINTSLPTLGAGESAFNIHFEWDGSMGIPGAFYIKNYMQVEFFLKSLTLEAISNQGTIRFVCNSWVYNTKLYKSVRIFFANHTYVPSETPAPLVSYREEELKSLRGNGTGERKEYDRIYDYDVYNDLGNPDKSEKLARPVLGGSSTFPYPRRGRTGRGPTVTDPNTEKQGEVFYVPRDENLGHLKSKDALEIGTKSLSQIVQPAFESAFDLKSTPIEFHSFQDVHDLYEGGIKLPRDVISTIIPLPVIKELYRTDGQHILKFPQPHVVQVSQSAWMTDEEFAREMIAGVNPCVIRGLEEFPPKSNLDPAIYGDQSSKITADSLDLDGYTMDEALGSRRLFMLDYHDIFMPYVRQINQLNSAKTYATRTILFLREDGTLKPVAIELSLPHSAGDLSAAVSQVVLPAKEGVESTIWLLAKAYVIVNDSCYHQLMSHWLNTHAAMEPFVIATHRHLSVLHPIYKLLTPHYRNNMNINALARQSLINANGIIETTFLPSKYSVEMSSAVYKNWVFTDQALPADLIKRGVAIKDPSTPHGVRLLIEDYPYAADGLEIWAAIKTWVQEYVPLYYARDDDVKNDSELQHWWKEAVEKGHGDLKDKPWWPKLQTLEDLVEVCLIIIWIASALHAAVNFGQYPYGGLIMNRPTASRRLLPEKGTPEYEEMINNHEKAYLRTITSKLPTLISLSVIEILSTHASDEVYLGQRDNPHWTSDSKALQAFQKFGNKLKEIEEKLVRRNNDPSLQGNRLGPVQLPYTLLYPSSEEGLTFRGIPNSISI
Kind of series: Inhibition of soybean lipoxygenase (UV absorbance-based enzyme assay). Type of series: biochemical. To be noted: for inhibition at 100 µM: read-out: LOX % inhibition. Here is the method:
Lipoxygenase catalyzes the first two steps in the metabolism of arachidonic acid to leukotrienes. LTB4 generation is important in the pathogenesis of neutrophil-mediated inflammatory diseases with a marked relation to the severity of cardiovascular diseases, asthma and cancer. We evaluated the synthesized pyrroles for their ability to inhibit soybean LOX by the UV absorbance-based enzyme assay. […] The inhibition of COX-2, as a peroxidase, was determined by a colorimetric assay with the oxidation of N,N,N′,N′-tetramethyl-p-phenylenediamine (TMPD).
The tested compounds were dissolved in DMSO, and the final concentration was 100 μΜ. The compounds were incubated at room temperature with sodium linoleate as a substrate (0.1 mL) in a buffer solution of Tris:HCl (pH 9.00) and 0.2 mL of a solution of soybean lipoxygenase.

Marks after values point to notes of the source that are not given here.

In the case of `O=C(c1cccs1)c1c[nH]cc1-c1ccc(OCc2ccc(Br)cc2)cc1` [Compound 2iii, (4-{4-[(4-Bromobenzyl)oxy]phenyl}-1H-pyrrol-3-yl)(thien-2-yl)methanone], the melting point fell in the range of 233 to 235 °C. In addition, in series [1], the inhibition in vivo at 10 µmol/kg came out at 89% and the “ED50 (carrageenan rat paw edema)” value was 0.052 mmol/kg Body Weight. Also, the IC50 on trypsin came to 9 µM.

In turn, `O=C(c1cccs1)c1c[nH]cc1-c1cccc(Oc2ccccc2)c1` [Compound 2i, [4-(3-Phenoxyphenyl)-1H-pyrrol-3-yl](thien-2-yl)methanone] showed a melting point of 165 to 166 °C. Further, the “ED50 (carrageenan rat paw edema)” value in series [1] is 0.061 ^c mmol/kg Body Weight. Also, the IC50 at soybean lipoxygenase (pH 9.00, read-out: LOX IC50) is 1000 µM. Moreover, the IC50 on trypsin turned out to be 60 µM.

Take `O=C(c1ccc(Cl)cc1)c1c[nH]cc1-c1cccc2ccccc12` [Compound 2v, (4-Chlorophenyl)[4-(naphth-1-yl)-1H-pyrrol-3-yl]methanone]: the melting point was 285 to 286 °C. In series [1], the inhibition in vivo at 10 µmol/kg turned out to be 78% and the “ED50 (carrageenan rat paw edema)” value amounted to 0.063 mmol/kg Body Weight. Also, at soybean lipoxygenase, the inhibition at 100 µM was 32%. Further, the IC50 on trypsin worked out at 8 µM.

For the compound `O=C(c1ccccc1)c1c[nH]cc1-c1cccc2ccccc12` [Compound 2iv, [4-(Naphth-1-yl)-1H-pyrrol-3-yl](phenyl)methanone], the melting point lay in the range of 270 to 272 °C. The inhibition in vivo at 10 µmol/kg in series [1] came out at 75%. In addition, on soybean lipoxygenase, the inhibition at 100 µM was 10%. Besides, the IC50 at trypsin worked out at 65 µM.

For orientation: melting point means the temperature of the solid-liquid transition. In general, IC50 refers to the concentration that gives 50% inhibition. The inhibition is the relative decrease from the control value, in per cent.

Values taken from article PMC6332026, “Synthesis and Pharmacochemistry of New Pleiotropic Pyrrolyl Derivatives” (Molecules, 2015).
